Assay results as given in patent publication US11525835B2, “Compounds and methods for use in detecting gabapentin” (Ark Diagnostics, Inc., priority 2007, dated 2022).

Test system: Rabbit polyclonal antibody #10930
Test: Specificity of the immunoassay (cross-reactivity of antibody with other antiepileptic drugs)
Assay type: binding
Conditions: assayed in duplicate, Cobas Mira
Text: Antibodies obtained using any of the disclosed techniques are screened or purified not only for their ability to react with gabapentin, but for a low cross-reactivity with potential interfering substances. “Cross-reactivity” may be determined in a quantitative immunoassay by establishing a standard curve using known dilutions of the target analyte, gabapentin. The standard curve is then used to calculate the apparent concentration of the interfering substance present in various known amounts in samples assayed under similar condition. The cross-reactivity is the apparent concentration divided by the actual concentration multiplied by 100. An exemplary immunoassay for determining cross-reactivity is a homogeneous enzyme immunoassay using a wild type G6PDH as described in U.S. Pat. No. 3,817,837 or mutant G6PDH engineered to contain a cysteine per subunit as described in U.S. Pat. Nos. 6,033,890, 6,090,567 and 6,455,288. Furthermore, the cross-reactivity can be determined in the same type of immunoassay in which the antibody will ultimately be used.
The gabapentin antibodies and enzyme conjugates may be advantageously used in a homogeneous assay format to detect gabapentin in samples. An analyzer (instrument) useful to set up the assay is Roche Cobas Mira (Roche Diagnostics). Gabapentin containing sample is incubated with antibody reagent followed by the addition of the enzyme conjugate reagent. The enzyme conjugate activity decreases upon binding to the antibody. The enzyme conjugate, which is not bound to the antibody, catalyzes the oxidation of glucose 6-phosphate (G6P). The oxidation of G6P is coupled with the reduction of NAD^+ to NADH, which can be measured at 340 nm. The change in the absorbance at 340 nm can be measured spectrophotometrically. The gabapentin concentration in a specimen can be measured in terms of G6PDH activity. The increase in the rate at 340 nm is due to the formation of NADH and is proportional to the enzyme conjugate activity. An assay curve is generated (FIG. 6) using gabapentin spiked into negative calibrator matrix. The assay rate increases with increasing the concentration of free drug in the sample.
The specificity of the immunoassay was evaluated by adding potentially crossreactant drugs to human serum and determining the increase in the apparent concentration as a result of the presence of crossreactant. Separate stock solutions of gabapentin were prepared by dissolving the drug in methanol to give a stock solution of 1000 μg/mL. […] Each sample was assayed in duplicate. Testing was performed on the Cobas Mira Analyzer®. The percentage concentration above 5 μg/mL of gabapentin was calculated for each crossreactant.

[1] = AED at 100 μg/mL in human serum

Compound	Percent Increase in Apparent Gabapentin [1]	Percent Increase in Apparent Gabapentin (AED at 50 μg/mL in human serum)
NC(=O)N1c2ccccc2C=Cc2ccccc21 [Carbamazepine]	0%	–
Nc1nnc(-c2cccc(Cl)c2Cl)c(N)n1 [Lamotrigine]	0%	–
CC[C@@H](C(N)=O)N1CCCC1=O [Levetiracetam]	0%	–
CCCC(CCC)C(=O)O [Valproic Acid]	0%	–
NS(=O)(=O)Cc1noc2ccccc12 [Zonisamide]	–	0%
